{"source": "patent US12077555B2", "about": "“STAT degraders and uses thereof” (Kymera Therapeutics, Inc., priority 2019, dated 2024)"}
{"target": "STAT3 (Homo sapiens, UniProt P40763)", "sequence (P40763 whole entry)": "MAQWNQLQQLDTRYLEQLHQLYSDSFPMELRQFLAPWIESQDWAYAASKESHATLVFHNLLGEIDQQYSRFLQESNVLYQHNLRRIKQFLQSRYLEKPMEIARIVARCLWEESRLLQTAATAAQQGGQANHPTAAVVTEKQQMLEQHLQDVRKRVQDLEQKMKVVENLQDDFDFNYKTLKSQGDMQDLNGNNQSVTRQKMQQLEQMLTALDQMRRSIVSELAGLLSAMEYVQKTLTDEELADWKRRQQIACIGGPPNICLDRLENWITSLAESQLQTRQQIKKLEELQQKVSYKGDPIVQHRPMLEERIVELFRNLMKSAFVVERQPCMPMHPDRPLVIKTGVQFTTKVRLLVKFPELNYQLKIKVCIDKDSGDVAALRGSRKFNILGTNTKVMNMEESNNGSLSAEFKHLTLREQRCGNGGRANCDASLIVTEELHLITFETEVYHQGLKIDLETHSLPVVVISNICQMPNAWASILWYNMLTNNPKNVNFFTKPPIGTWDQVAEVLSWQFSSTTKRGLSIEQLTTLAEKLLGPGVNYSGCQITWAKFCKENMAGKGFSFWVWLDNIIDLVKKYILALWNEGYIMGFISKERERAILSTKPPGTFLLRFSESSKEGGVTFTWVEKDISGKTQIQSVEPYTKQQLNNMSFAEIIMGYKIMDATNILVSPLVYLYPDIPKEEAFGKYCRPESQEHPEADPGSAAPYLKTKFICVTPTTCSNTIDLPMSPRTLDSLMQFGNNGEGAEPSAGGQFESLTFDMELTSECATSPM", "experiment": "Quantitation of STAT3 degradation in A549 cells by Western blot", "assay_type": "cell-based", "parameters": "expressed in transfected cells; host or cells: A549", "conditions": "24 hours, tested up to 30 μM or 10 μM, read-out: A549 DC50", "method_in_brief": "(§1)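 A549 cells treated 24 h at 37° C with compound at 30, 10, 3, 1, 0.3 μM or DMSO; RIPA lysates analysed by SDS-PAGE/Western blot for total STAT3, β-actin as loading control, LI-COR fluorescence read-out. DC50 derived by sigmoidal fit of dose-dependent degradation.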", "units": {"DC50": "µM"}}
{"smiles": "C/C(=C\\C(=O)N[C@H]1CCc2cccc3c2N(C1=O)[C@H](C(=O)N[C@@H](CCC(N)=O)[C@@H](C)OCc1ccc(CCCCC(=O)N[C@H](C(=O)N2C[C@H](O)C[C@H]2C(=O)NCc2ccc(-c4scnc4C)cc2)C(C)(C)C)cc1)C3)c1ccc(CP(=O)(O)O)cc1", "note": "[Compound I-80, diammonium [4-[(1E)-1-[[(2S,11S)-2-[[(3S,4R)-1-carbamoyl-4-[[4-(4-[[(2S)-1-[(2S,4R)-4-hydroxy-2-([[4-(4-methyl-1,3-thiazol-5-yl)phenyl]methyl]carbamoyl)pyrrolidin-1-yl]-3,3-dimethyl-1-oxobutan-2-yl]carbamoyl]butyl)phenyl]methoxy]pentan-3-yl]carbamoyl]-12-oxo-1-azatricyclo[6.4.1.0^[4,13]]trideca-4(13),5,7-trien-11-yl]carbamoyl]prop-1-en-2-yl]phenyl]methylphosphonate]", "DC50": "> 30"}
{"smiles": "Cc1ncsc1-c1ccc(CNC(=O)[C@@H]2C[C@@H](O)CN2C(=O)[C@@H](NC(=O)CCCCc2ccc(CO[C@H](C)[C@H](CCC(N)=O)NC(=O)[C@@H]3Cc4cccc5c4N3C(=O)[C@@H](NC(=O)c3cc4cc(CP(=O)(O)O)ccc4[nH]3)CC5)cc2)C(C)(C)C)cc1", "note": "[Compound I-82, diammonium (2-[[(2S,11S)-2-[[(3S,4R)-1-carbamoyl-4-[[4-(4-[[(2S)-1-[(2S,4R)-4-hydroxy-2-([[4-(4-methyl-1,3-thiazol-5-yl)phenyl]methyl]carbamoyl)pyrrolidin-1-yl]-3,3-dimethyl-1-oxobutan-2-yl]carbamoyl]butyl)phenyl]methxy]opentan-3-yl]carbamoyl]-12-oxo-1-azatricyclo[6.4.1.0^[4,13]]trideca-4(13),5,7-trien-11-yl]carbamoyl]-1H-indo1-5-yl)methylphosphonate]", "DC50": "> 30"}
{"target": "STAT3 (Homo sapiens, UniProt P40763)", "experiment": "Quantitation of STAT3 degradation in A549 cells by Western blot", "assay_type": "cell-based", "parameters": "expressed in transfected cells; host or cells: A549", "conditions": "read-out: A549 DC50, 24 hours, tested up to 30 μM or 10 μM", "method_in_brief": "as §1", "units": {"DC50": "µM"}}
{"smiles": "C/C(=C\\C(=O)N[C@H]1CCc2cccc3c2N(C1=O)[C@H](C(=O)N[C@@H](CCC(N)=O)[C@@H](C)OCc1ccc(CCCNC(=O)COCCCc2ccc4c(c2)n(C)c(=O)n4C2CCC(=O)NC2=O)cc1)C3)c1ccc(C(F)(F)P(=O)(OCOC(=O)C(C)(C)C)OCOC(=O)C(C)(C)C)cc1", "note": "(stereo partly drawn) [Compound I-68]", "DC50": "> 30"}
{"smiles": "C/C(=C\\C(=O)N[C@H]1CCc2cccc3c2N(C1=O)[C@H](C(=O)N[C@@H](CCC(N)=O)[C@@H](C)OCc1ccc(CCCCCC(=O)N[C@H](C(=O)N2C[C@H](O)C[C@H]2C(=O)NCc2ccc(-c4scnc4C)cc2)C(C)(C)C)cc1)C3)c1ccc(C(F)(F)P(=O)(OCOC(=O)C(C)(C)C)OCOC(=O)C(C)(C)C)cc1", "note": "[Compound I-71]", "DC50": "< 30"}
{"smiles": "C[C@@H](OCc1ccc(CCCCc2ccc3c(c2)n(C)c(=O)n3C2CCC(=O)NC2=O)cc1)[C@H](CCC(N)=O)NC(=O)[C@@H]1Cc2cccc3c2N1C(=O)[C@@H](NC(=O)c1cc2cc(C(=O)P(=O)(O)O)ccc2[nH]1)CC3", "note": "(stereo partly drawn) [Compound I-84]", "DC50": "> 30"}
{"smiles": "Cc1ncsc1-c1ccc(CNC(=O)[C@@H]2C[C@@H](O)CN2C(=O)[C@@H](NC(=O)CCCC#Cc2ccc(CO[C@H](C)[C@H](CCC(N)=O)NC(=O)[C@@H]3Cc4cccc5c4N3C(=O)[C@@H](NC(=O)c3cc4cc(C(=O)P(=O)(O)O)ccc4[nH]3)CC5)cc2)C(C)(C)C)cc1", "note": "[Compound I-86]", "DC50": "< 30"}
{"smiles": "Cc1ncsc1-c1ccc(CNC(=O)[C@@H]2C[C@@H](O)CN2C(=O)[C@@H](NC(=O)CCc2ccc3cc(CO[C@H](C)[C@H](CCC(N)=O)NC(=O)[C@@H]4Cc5cccc6c5N4C(=O)[C@@H](NC(=O)c4cc5cc(C(=O)P(=O)(O)O)ccc5[nH]4)CC6)ccc3c2)C(C)(C)C)cc1", "note": "[Compound I-87, diammonium 2-[[(2S,11S)-2-[[(3S,4R)-1-carbamoyl-4-[[6-(2-[[(2S)-1-[(2S,4R)-4-hydroxy-2-([[4-(4-methyl-1,3-thiazol-5-yl)phenyl]methyl]carbamoyl)pyrrolidin-1-yl]-3,3-dimethyl-1-oxobutan-2-yl]carbamoyl]ethyl)naphthalen-2-yl]methoxy]pentan-3-yl]carbamoyl]-12-oxo-1-azatricyclo[6.4.1.0^[4,13]]trideca-4(13),5,7-trien-11-yl]carbamoyl]-1H-indole-5-carbonylphosphonate]", "DC50": "< 30"}
{"smiles": "Cn1c(=O)n(C2CCC(=O)NC2=O)c2cccc(CCCCC(=O)N3CC[C@H]4CC[C@@H](C(=O)N[C@@H](CCC(N)=O)C(=O)NC(c5ccccc5)c5ccccc5)N4C(=O)[C@@H](NC(=O)c4cc5cc(C(=O)P(=O)(O)O)ccc5[nH]4)C3)c21", "note": "(stereo partly drawn) [Compound I-88, 2-[[(5S,8S,10aR)-8-[[(1S)-3-carbamoyl-1-(diphenylmethylcarbamoyl)propyl]carbamoyl]-3-[5-[1-(2,6-dioxopiperidin-3-yl)-3-methyl-2-oxo-1,3-benzodiazol-4-yl]pentanoyl]-6-oxo-octahydropyrrolo[1,2-a][1,5]diazocin-5-yl]carbamoyl]-1H-indole-5-carbonylphosphonic acid]", "DC50": "> 30"}
{"smiles": "C/C(=C\\C(=O)N[C@H]1CN(C(=O)CCCCCC#Cc2cccc3c2CN(C2CCC(=O)NC2=O)C3=O)CC[C@H]2CC[C@@H](C(=O)N[C@@H](CCC(N)=O)C(=O)NC(c3ccccc3)c3ccccc3)N2C1=O)c1ccc(CP(=O)(O)O)cc1", "note": "(stereo partly drawn) [Compound I-89, diammonium [4-[(1E)-1-[[(5S,8S,10aR)-8[[(1S)-3-carbamoyl-1-(diphenylmethylcarbamoyl)propyl]carbamoyl]-3-[8-[2-(2,6-dioxopiperidin-3-yl)-1-oxo-3H-isoindol-4-yl]oct-7-ynoyl]-6-oxo-octahydropyrrolo[1,2-a][1,5]diazocin-5-yl]carbamoyl]prop-1-en-2-yl]phenyl]methylphosphonate]", "DC50": "< 30"}
{"smiles": "Cc1ncsc1-c1ccc(C2(NC(=O)[C@@H]3C[C@@H](O)CN3C(=O)[C@@H](NC(=O)CCCCc3ccc(CO[C@H](C)[C@H](CCC(N)=O)NC(=O)[C@@H]4Cc5cccc6c5N4C(=O)[C@@H](NC(=O)c4cc5cc(C(=O)P(=O)(O)O)ccc5[nH]4)CC6)cc3)C(C)(C)C)CC2)cc1", "note": "[Compound I-90, 2-[[(2S,11S)-2-[[(3S,4R)-1-carbamoyl-4-[[4-(4-[[(2S)-1-[(2S,4R)-4-hydroxy-2-([1-[4-(4-methyl-1,3-thiazol-5-yl)phenyl]cyclopropyl]carbamoyl)pyrrolidin-1-yl]-3,3-dimethyl-1-oxobutan-2-yl]carbamoyl]butyl)phenyl]methoxy]pentan-3-yl]carbamoyl]-12-oxo-1-azatricyclo[6.4.1.0^[4,13]]trideca-4(13),5,7-trien-11-yl]carbamoyl]-1H-indole-5-carbonylphosphonic acid]", "DC50": "< 30"}
{"smiles": "Cn1c(=O)n(C2CCC(=O)NC2=O)c2cccc(CCCCCCCC(=O)N3CC[C@H]4CC[C@@H](C(=O)N[C@@H](CCC(N)=O)C(=O)NC(c5ccccc5)c5ccccc5)N4C(=O)[C@@H](NC(=O)c4cc5cc(C(=O)P(=O)(O)O)ccc5[nH]4)C3)c21", "note": "(stereo partly drawn) [Compound I-91]", "DC50": "< 30"}
{"smiles": "C/C(=C\\C(=O)N[C@H]1CCc2cccc3c2N(C1=O)[C@H](C(=O)N[C@@H](CCC(N)=O)[C@@H](C)OCc1ccc(CCCCC(=O)N[C@H](C(=O)N2C[C@H](O)C[C@H]2C(=O)NC2(c4ccc(-c5scnc5C)cc4)CC2)C(C)(C)C)cc1)C3)c1ccc(C(F)(F)P(=O)(O)O)cc1", "note": "[Compound I-92]", "DC50": "> 30"}
{"smiles": "Cc1ncsc1-c1ccc(CNC(=O)[C@@H]2C[C@@H](O)CN2C(=O)[C@@H](NC(=O)CCCCc2cccc(CO[C@H](C)[C@H](CCC(N)=O)NC(=O)[C@@H]3Cc4cccc5c4N3C(=O)[C@@H](NC(=O)c3cc4cc(C(=O)P(=O)(O)O)ccc4[nH]3)CC5)c2)C(C)(C)C)cc1", "note": "[Compound I-95, diammonium 2-[[(2S,11S)-2-[[(3S,4R)-1-carbamoyl-4-[[3-(4-[[(2S)-1-[(2S,4R)-4-hydroxy-2-([[4-(4-methyl-1,3-thiazol-5-yl)phenyl]methyl]carbamoyl)pyrrolidin-1-yl]-3,3-dimethyl-1-oxobutan-2-yl]carbamoyl]butyl)phenyl]methoxy]pentan-3-yl]carbamoyl]-12-oxo-1-azatricyclo[6.4.1.0^[4,13]]trideca-4(13),5,7-trien-11-yl]carbamoyl]-1H-indole-5-carbonylphosphonate]", "DC50": "< 30"}
{"smiles": "Cc1ncsc1-c1ccc(CNC(=O)[C@@H]2C[C@@H](O)CN2C(=O)[C@@H](NC(=O)CCC#Cc2ccc(CO[C@H](C)[C@H](CCC(N)=O)NC(=O)[C@@H]3Cc4cccc5c4N3C(=O)[C@@H](NC(=O)c3cc4cc(C(=O)P(=O)(O)O)ccc4[nH]3)CC5)cc2)C(C)(C)C)cc1", "note": "[Compound I-96, diammonium 2-[[(2S,11S)-2-[[(3S,4R)-1-carbamoyl-4-[[4-(4-[[(2S)-1-[(2S,4R)-4-hydroxy-2-([[4-(4-methyl-1,3-thiazol-5-yl)phenyl]methyl]carbamoyl)pyrrolidin-1-yl]-3,3-dimethyl-1-oxobutan-2-yl]carbamoyl]but-1-yn-1-yl)phenyl]methoxy]pentan-3-yl]carbamoyl]-12-oxo-1-azatricyclo[6.4.1.0^[4,13]]trideca-4(13),5,7-trien-11-yl]carbamoyl]-1H-indole-5-carbonylphosphonate]", "DC50": "> 30"}
{"smiles": "Cn1c(=O)n(C2CCC(=O)NC2=O)c2ccc(CCCCCCCC(=O)N3CC[C@H]4CC[C@@H](C(=O)N[C@@H](CCC(N)=O)C(=O)NC(c5ccccc5)c5ccccc5)N4C(=O)[C@@H](NC(=O)c4cc5cc(C(=O)P(=O)(O)O)ccc5[nH]4)C3)cc21", "note": "(stereo partly drawn) [Compound I-97, 2-[[(5S,8S,10aR)-8-[[(1S)-3-carbamoyl-1-(diphenylmethylcarbamoyl)propyl]carbamoyl]-3-[8-[1-(2,6-dioxopiperidin-3-yl)-3-methyl-2-oxo-1,3-benzodiazol-5-yl]octanoyl]-6-oxo-octahydropyrrolo[1,2-a][1,5]diazocin-5-yl]carbamoyl]-1H-indole-5-carbonylphosphonic acid]", "DC50": "< 30"}
